Experimental data published in patent US11548888B2, “KRas G12C inhibitors” (Mirati Therapeutics, Inc., priority 2019, dated 2023).

The molecules below were run against T1, KRas G12C (Homo sapiens, UniProt P01116, G12C) (assay: Inhibition of KRas G12C-dependent cell growth: Phospho-ERK in NCI-H358 cells). Details: NCI-H358 cells expressing KRas G12C; Phospho-ERK (Thr202/Tyr204) normalized to GAPDH; 3 hours compound; 4 parameter fit.
T1 construct: NCI-H358 cells (ATCC CRL-5807) express KRas G12C
T1 sequence (P01116 1-188 isoform P01116-2 G12C): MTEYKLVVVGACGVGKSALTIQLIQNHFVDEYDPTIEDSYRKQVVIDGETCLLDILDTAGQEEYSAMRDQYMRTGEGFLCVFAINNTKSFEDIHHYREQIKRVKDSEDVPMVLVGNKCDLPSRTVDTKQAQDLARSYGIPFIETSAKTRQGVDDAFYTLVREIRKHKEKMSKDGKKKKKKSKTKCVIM
Assay type: cell-based
Description: The cellular inhibition of KRAs G12C by exemplary compounds of the present invention was determined by measuring the amount of a downstream marker of KRas activity, phosphorylated ERK (“Phospho-ERK”).
NCI-H358 cells (ATCC CRL-5807) express KRas G12C and were grown in RPMI medium supplemented with 10% fetal bovine serum, penicillin/streptomycin and 10 mM HEPES. Cells were plated in poly-D-Lysine coated 96-well plates at a concentration of 50,000 cells/well and allowed to attach for 8-12 hours. Diluted compounds were then added at a final concentration of 0.5% DMSO. After 3 hours, the medium was removed, 150 μL of 4% formaldehyde was added and the plates were incubated for 20 minutes. The plates were washed with PBS, and permeabilized using 150 μL of ice cold 100% methanol for 10 minutes. Non-specific antibody binding to the plates was blocked using 100 μL Licor Blocking Buffer (Li-Cor Biotechnology, Lincoln Nebr.) for 1 hour at room temperature. Positive control samples and samples lacking cells were parallel processed with test samples as standards.
The amount Phospho-ERK was determined using an antibody specific for the phosphorylated form of ERK and compared to the amount of GAPDH. Primary antibodies used for detection were added as follows: Phospho-ERK (Cell Signaling cs9101) diluted 1:500 and GAPDH (Millipore MAB374) diluted 1:5000 in Licor block+0.05% Tween 20. The plates were incubated for 2 hours at room temperature. The plates were washed with PBS+0.05% Tween 20.
Secondary antibodies used to visualize primary antibodies were added as follows: Anti-rabbit-680 diluted 1:1000 and Anti-mouse-800 diluted 1:1000 in Licor Block+0.05% Tween 20 and incubated for 1 hour at room temperature. The plates were washed with PBS+0.05% Tween 20. A 100 μL aliquot of PBS was added to each well and the plates were read on a LICOR AERIUS plate reader.
The pERK(Thr202/Tyr204) signal was normalized with the GAPDH signal and percent of DMSO control values were calculated. IC50 values were generated using a 4 parameter fit of the dose response curve.
Work on `C=C(F)C(=O)N1CCN(c2ncnc3c(F)c(-c4cccc5cccc(C)c45)ncc23)C[C@@H]1CC#N` [Example 111] yielded an IC50 of 3.92 µM. Work on `C=CC(=O)N1CC2(CCN(c3nc(OC[C@@H]4CCCN4C)nc4c(F)c(-c5cccc6cccc(Cl)c56)ncc34)CC2)C1` [Example 85] yielded an IC50 of 0.519 µM. In the case of `O=C(/C=C/C(F)(F)F)N1CC[C@@H]2[C@H]1CN2c1ncnc2c(F)c(-c3cccc4ccc(F)c(Cl)c34)ncc12` [Example 263], the IC50 is reported as 1.14 µM. `C=C(F)C(=O)N1CCN(c2nc(OC[C@@H]3CCCN3C)nc3c(F)c(-c4ccccc4F)ncc23)C[C@@H]1CC#N` [Example 87] showed an IC50 of 4.38 µM. In the case of `C=CC(=O)N1CC[C@@H]2[C@H]1CN2c1nc(OC(C)C)nc2c(F)c(-c3cccc4ccc(F)c(Cl)c34)ncc12` [Example 270], the IC50 is reported as 3.78 µM. In the case of `C=C(F)C(=O)N1CCN(c2nc(OC[C@@H]3CCCN3C)nc3c(F)c(-c4cccc5ccccc45)ncc23)C[C@@H]1CC#N` [Example 8, 2-[(2S)-4-[8-fluoro-2-[[(2S)-1-methylpyrrolidin-2-yl]methoxy]-7-(1-naphthyl)pyrido[4,3-d]pyrimidin-4-yl]-1-(2-fluoroprop-2-enoyl)piperazin-2-yl]acetonitrile], the IC50 is reported as 0.132 µM. Work on `C=CC(=O)N1CCN(c2nc(OC[C@@H]3CCCN3C)nc3c(F)c(-c4cccc5ccc(F)c(Cl)c45)ncc23)CC1CF` (some centres unmarked) [Example 164] yielded an IC50 of 0.153 µM. `C=CC(=O)N1CC[C@@H]2[C@H]1CN2c1ncnc2c(F)c(-c3c(O)ccc4ccccc34)ncc12` [Example 281] showed an IC50 of 2.34 µM. For `C=C(F)C(=O)N1CCN(c2nc(OCc3cc4ncccc4[nH]3)nc3c(F)c(-c4cccc5ccc(F)c(Cl)c45)ncc23)C[C@@H]1CC#N` [Example 142], the IC50 was 1.25 µM. Work on `C=CS(=O)(=O)N1CCN(c2ncnc3c(F)c(-c4cccc5ccc(F)c(Cl)c45)ncc23)CC1` [Example 205] yielded an IC50 of 10 µM. `C=CC(=O)N1CC2(CCN(c3nc(OC4CCN(C5CCOCC5)CC4)nc4c(F)c(-c5cccc6cccc(Cl)c56)ncc34)CC2)C1` [Example 74] showed an IC50 of 1.35 µM. `CO[C@@H]1C[C@@H](COc2nc(N3CCN(C(=O)/C=C/CF)[C@@H](CC#N)C3)c3cnc(-c4cccc5cccc(C)c45)c(F)c3n2)N(C)C1` [Example 26, 2-[(2S)-1-[(E)-4-fluorobut-2-enoyl]-4-[8-fluoro-2-[[(2S,4R)-4-methoxy-1-methyl-pyrrolidin-2-yl]methoxy]-7-(8-methyl-1-naphthyl)pyrido[4,3-d]pyrimidin-4-yl]piperazin-2-yl]acetonitrile] gave an IC50 of 0.055 µM. In the case of `C=CC(=O)N1CC2CN(c3nc(OC[C@@H]4CCCN4C)nc4c(F)c(-c5cncc6cccc(Cl)c56)ncc34)CC2C1` (some centres unmarked) [Example 105], the IC50 is reported as 10 µM. `CN1CCC[C@H]1COc1nc(N2CCN(C(=O)/C=C/CF)[C@@H](CC#N)C2)c2cnc(-c3cncc4cccc(Cl)c34)c(F)c2n1` [Example 90] showed an IC50 of 0.026 µM. For `C=CC(=O)N1CC[C@@H]2[C@H]1CN2c1nc(OC)nc2c(F)c(-c3cccc4ccc(F)c(Cl)c34)ncc12` [Example 267], the IC50 was 0.33 µM. `C=CC(=O)N1CCN(c2nc(OC[C@@H]3CCCN3C)nc3c(F)c(-c4cccc5cccc(Cl)c45)ncc23)[C@@H](C)C1` [Example 69] was tested, and the IC50 was 0.058 µM. `C=CC(=O)N1CC[C@@H]2[C@H]1CN2c1ncnc2cc(-c3cccc4ccc(F)c(Cl)c34)ncc12` [Example 254] was tested, and the IC50 was 2.16 µM. For `C=CC(=O)N1CC[C@@H]2[C@H]1CN2c1nc(N2CC(N(C)C)C2)nc2c(F)c(-c3cccc4ccc(F)c(Cl)c34)ncc12` [Example 273], the IC50 was 0.016 µM. `C=C(F)C(=O)N1CCN(c2nc(OC[C@@H]3CCCN3C)nc3c(F)c(-c4cccc5ccc(F)c(Cl)c45)ncc23)C[C@@H]1CC#N` [Example 92] gave an IC50 of 0.011 µM. `C=CC(=O)N1CC2(CCN(c3nc(OC[C@@H]4CCCN4C)nc4c(F)c(-c5c(C)ccc6[nH]ncc56)ncc34)CC2)C1` [Example 83] gave an IC50 of 3.5 µM. `C=C(F)C(=O)N1CCN(c2nc(OC[C@@H]3CCCN3C3CCC3)nc3c(F)c(-c4cccc5ccc(F)c(Cl)c45)ncc23)C[C@@H]1CC#N` [Example 140] was tested, and the IC50 was 0.014 µM. For `C=CC(=O)N1CC[C@@H]2[C@H]1CN2c1ncnc2c(F)c(-c3cccc4cc(OC)ccc34)ncc12` [Example 266], the IC50 was 10 µM. In the case of `C=CC(=O)N1CCN(c2nc(OC[C@@H]3CCCN3C)nc3c(F)c(-c4cccc5ccc(F)c(Cl)c45)ncc23)CC1` [Example 171], the IC50 is reported as 0.022 µM. With `C=C(F)C(=O)N1CCN(c2nc(OC[C@@H]3CC(F)(F)CN3C)nc3c(F)c(-c4cccc5ccc(F)c(Cl)c45)ncc23)C[C@@H]1CC#N` [Example 210] the IC50 was 0.049 µM. Molecule `C=C(F)C(=O)N1CCN(c2nc(OC[C@@H]3C[C@@H](OC)CN3C)nc3c(F)c(-c4cccc5cccc(C)c45)ncc23)C[C@@H]1CC#N` [Example 15, 2-[(2S)-4-[8-fluoro-2-[[(2S,4R)-4-methoxy-1-methyl-pyrrolidin-2-yl]methoxy]-7-(8-methyl-1-naphthyl)pyrido[4,3-d]pyrimidin-4-yl]-1-(2-fluoroprop-2-enoyl)piperazin-2-yl]acetonitrile] has an IC50 of 0.05 µM. In the case of `C=C(F)C(=O)N1CCN(c2nc(OCCc3nccn3C)nc3c(F)c(-c4cccc5ccc(F)c(Cl)c45)ncc23)C[C@@H]1CC#N` [Example 132], the IC50 is reported as 0.145 µM. `C=CC(=O)N1CCN(c2ncnc3cc(-c4c(O)cccc4F)ncc23)CC1` [Example 3, 1-(4-(7-(2-fluoro-6-hydroxyphenyl)pyrido[4,3-d]pyrimidin-4-yl)piperazin-1-yl)prop-2-en-1-one] showed an IC50 of 16 µM. For `C=C(F)C(=O)N1CCN(c2nc(OC[C@@H]3CCCN3C)nc3c(F)c(-c4cccc5ccc(F)c(C)c45)ncc23)C[C@@H]1CC#N` [Example 86], the IC50 was 0.014 µM. In the case of `C=CC(=O)N1CCN(c2ncnc3cc(-c4cc(O)cc5ccccc45)ncc23)CC1C#N` (centres unmarked) [Example 2, 1-acryloyl-4-(7-(3-hydroxynaphthalen-1-yl)pyrido[4,3-d]pyrimidin-4-yl)piperazine-2-carbonitrile], the IC50 is reported as 0.325 µM. For `C=CC(=O)N1CCCC12CN(c1ncnc3c(F)c(-c4cccc5ccc(F)c(Cl)c45)ncc13)C2` [Example 236], the IC50 was 10 µM. In the case of `COC/C=C/C(=O)N1CCN(c2ncnc3c(F)c(-c4cccc5ccc(F)c(Cl)c45)ncc23)C[C@@H]1CC#N` [Example 110], the IC50 is reported as 0.725 µM. `C=C(F)C(=O)N1CCN(c2nc(OCC3(C)C(OC)CN3C)nc3c(F)c(-c4cccc5ccc(F)c(Cl)c45)ncc23)C[C@@H]1CC#N` (some centres unmarked) [Example 208] showed an IC50 of 0.004 µM. `C=C(F)C(=O)N1CCN(c2nc(OC[C@@H]3CC(F)(F)CN3C)nc3c(F)c(-c4cncc5cccc(Cl)c45)ncc23)C[C@@H]1CC#N` [Example 46, 2-((S)-4-(7-(5-chloroisoquinolin-4-yl)-2-(((S)-4,4-difluoro-1-methylpyrrolidin-2-yl)methoxy)-8-fluoropyrido[4,3-d]pyrimidin-4-yl)-1-(2-fluoroacryloyl)piperazin-2-yl)acetonitrile] was tested, and the IC50 was 0.094 µM. For `C=CC(=O)N1[C@@H](C)CN(c2ncnc3c(F)c(-c4cccc5ccc(F)c(Cl)c45)ncc23)C[C@@H]1C` [Example 146], the IC50 was 10 µM. With `C#Cc1cccc2cc(O)cc(-c3ncc4c(N5C[C@@H]6[C@H]5CCN6C(=O)C=C)ncnc4c3F)c12` [Example 291, 1-((1R,5R)-6-(7-(8-ethynyl-3-hydroxynaphthalen-1-yl)-8-fluoropyrido[4,3-d]pyrimidin-4-yl)-2,6-diazabicyclo[3.2.0]heptan-2-yl)prop-2-en-1-one] the IC50 was 0.002 µM.
